Reference: patent US12233047B2, “Pharmaceutical combination and use thereof” (ASCENTAGE PHARMA (SUZHOU) CO., LTD., priority 2019, dated 2025)
Positions count from the first letter of the chain named.

Tests used:
FLT3 (K663Q) = molecular target: T1, FLT3 (K663Q) (Homo sapiens, UniProt P36888, K663Q); test: KINOMEscan kinase binding assay, FLT3 (K663Q)
T1 construct: host or cells: T7 phage in E. coli (BL21-derived) or HEK-293
T1 sequence (P36888 27-993 K663Q): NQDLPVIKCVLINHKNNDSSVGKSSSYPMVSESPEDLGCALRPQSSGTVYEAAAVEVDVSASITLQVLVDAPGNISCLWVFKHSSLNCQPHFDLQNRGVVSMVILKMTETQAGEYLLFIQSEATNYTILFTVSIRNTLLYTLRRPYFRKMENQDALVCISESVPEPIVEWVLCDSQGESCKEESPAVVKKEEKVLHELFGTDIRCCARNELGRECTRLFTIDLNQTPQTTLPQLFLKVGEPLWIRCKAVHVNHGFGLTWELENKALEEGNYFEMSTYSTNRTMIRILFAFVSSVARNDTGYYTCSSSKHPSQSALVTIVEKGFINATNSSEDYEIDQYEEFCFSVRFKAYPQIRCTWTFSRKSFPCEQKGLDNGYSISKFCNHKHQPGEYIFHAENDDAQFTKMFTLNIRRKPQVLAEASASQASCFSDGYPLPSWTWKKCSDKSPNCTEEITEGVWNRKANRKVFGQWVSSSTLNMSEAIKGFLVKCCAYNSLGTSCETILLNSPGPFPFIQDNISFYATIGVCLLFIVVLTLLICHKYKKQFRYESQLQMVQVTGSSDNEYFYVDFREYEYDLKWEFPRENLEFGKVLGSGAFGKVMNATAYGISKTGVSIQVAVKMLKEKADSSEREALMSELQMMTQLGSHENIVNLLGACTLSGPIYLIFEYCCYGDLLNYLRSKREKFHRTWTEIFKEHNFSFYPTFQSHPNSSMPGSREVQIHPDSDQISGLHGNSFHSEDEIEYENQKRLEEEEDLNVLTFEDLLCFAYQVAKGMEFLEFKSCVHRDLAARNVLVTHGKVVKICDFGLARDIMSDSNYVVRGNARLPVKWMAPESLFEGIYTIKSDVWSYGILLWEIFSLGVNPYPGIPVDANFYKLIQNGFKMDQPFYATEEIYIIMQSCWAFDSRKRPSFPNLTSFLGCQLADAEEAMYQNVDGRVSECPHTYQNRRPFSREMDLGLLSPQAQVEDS
Protocol: (§1) The kinase assay was conducted using KINOMEscan™.
(§2) Kinase-tagged T7 phage strains were grown in parallel in 24-well blocks in an E. coli host derived from the BL21 strain. E. coli were grown to log-phase and infected with T7 phage from a frozen stock (multiplicity of infection=0.4) and incubated with shaking at 32° C. until lysis (90-150 minutes). The lysates were centrifuged (6,000×g) and filtered (0.2 μm) to remove cell debris. The remaining kinases were produced in HEK-293 cells and subsequently tagged with DNA for qPCR detection. Streptavidin-coated magnetic beads were treated with biotinylated small molecule ligands for 30 minutes at room temperature to generate affinity resins for kinase assays. The liganded beads were blocked with excess biotin and washed with blocking buffer (SeaBlock (Pierce), 1% BSA, 0.05% Tween 20, 1 mM DTT) to remove unbound ligand and to reduce non-specific phage binding. Binding reactions were assembled by combining kinases, liganded affinity beads, and test compound (Compound 23) in 1× binding buffer (20% SeaBlock, 0.17×PBS, 0.05% Tween 20, 6 mM DTT). Test compound were prepared as 40× stocks in 100% DMSO and directly diluted into the assay. All reactions were performed in polypropylene 384-well plates in a final volume of 0.04 ml. […] The kinase concentration in the eluates was measured by qPCR. […]

FLT3 (R834Q) = molecular target: T2, FLT3 (R834Q) (Homo sapiens, UniProt P36888, R834Q); test: KINOMEscan kinase binding assay, FLT3 (R834Q)
T2 construct: host or cells: T7 phage in E. coli (BL21-derived) or HEK-293
T2 sequence (P36888 27-993 R834Q): T1 sequence (P36888 27-993 K663Q) with Q637K, R808Q
Protocol: as §1, §2

SMILES: Cc1ccc(C(=O)Nc2ccc(CN3CCN(C)CC3)c(C(F)(F)F)c2)cc1C#Cc1cnc2[nH]ncc2c1 [Compound 23, 3-(2-(1H-pyrazolo[3,4-b]pyridin-5-yl)ethynyl)-4-methyl-N-(4-((4-methylpiperazin-1-yl)methyl)-3-(trifluoromethyl)phenyl)benzamide]
- % Ctrl@10 nM (FLT3 (K663Q); 10 nM): 5 % Ctrl
- % Ctrl@100 nM (FLT3 (K663Q); 100 nM): 0.6 % Ctrl
- % Ctrl@10 nM (FLT3 (R834Q); 10 nM): 23 % Ctrl
- % Ctrl@100 nM (FLT3 (R834Q); 100 nM): 15 % Ctrl
